Here are results for six compounds from PubChem BioAssay AID258 (DTP/NCI, 2004).

“And” between values parts separate entries of the source, which are not always exact repeats. Equal values may be shown once. Inconclusive results and toxic doses are left out.

The experiment has as its system CD2F1 mice, L1210 leukemia sc, survival T/C. Put plainly: NCI In Vivo Anticancer Drug Screen. Data for tumor model L1210 Leukemia (subcutaneous) in CD2F1 (CDF1) mice. As to conditions: endpoint: median survival time, higher = longer survival. In outline: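 Transplantable tumor-bearing mice were treated with compound; survival or tumor size measured and expressed as treated-group value (T) divided by vehicle-treated control value (C).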

`CN(CCN(C)C(=O)CCOS(C)(=O)=O)C(=O)CCOS(C)(=O)=O`: the T/C was 106 % of control and 107 % of control (dose: 25.0 mg/kg/injection, schedule: Q01DX009 (ip), vehicle: saline); 123 % of control (dose: 50.0 mg/kg/injection, schedule: Q01DX009 (ip), vehicle: saline); 171 % of control (dose: 100.0 mg/kg/injection, schedule: Q01DX009 (ip), vehicle: saline); 103 % of control and 94 % of control (dose: 200.0 mg/kg/injection, schedule: Q01DX009 (ip), vehicle: saline).

As for `O=C1NC(=O)C2C3C=CC(C12)C1C2C(=O)NC(=O)C2C31` (stereo not given), the T/C runs as follows: (dose: 3.0 mg/kg/injection, schedule: Q01DX005 (iv), vehicle: other) 108 % of control; (dose: 6.0 mg/kg/injection, schedule: Q01DX005 (ip), vehicle: other) 111 % of control; (dose: 6.0 mg/kg/injection, schedule: Q01DX005 (iv), vehicle: other) 104 % of control; (dose: 6.0 mg/kg/injection, schedule: Q01DX005 (sc), vehicle: other) 105 % of control; (dose: 12.0 mg/kg/injection, schedule: Q01DX005 (ip), vehicle: other) 104 % of control; (dose: 12.0 mg/kg/injection, schedule: Q01DX005 (iv), vehicle: other) 104 % of control and 107 % of control. For the same compound, the T/C by setting is: (dose: 12.0 mg/kg/injection, schedule: Q01DX005 (sc), vehicle: other) 108 % of control; (dose: 12.0 mg/kg/injection, schedule: Q01DX009 (ip), vehicle: other) 115 % of control; (dose: 14.0 mg/kg/injection, schedule: Q01DX009 (ip), vehicle: water) 110 % of control; (dose: 17.2 mg/kg/injection, schedule: Q01DX005 (iv), vehicle: other) 107 % of control; (dose: 17.2 mg/kg/injection, schedule: Q01DX009 (ip), vehicle: other) 122 % of control; (dose: 18.0 mg/kg/injection, schedule: Q01DX009 (ip), vehicle: clinical formulation) 121 % of control. Also, the T/C (dose: 24.5 mg/kg/injection, schedule: Q01DX005 (iv), vehicle: other) was 110 % of control; the T/C (dose: 25.0 mg/kg/injection, schedule: Q01DX005 (ip), vehicle: other) is 113 % of control; the T/C (dose: 25.0 mg/kg/injection, schedule: Q01DX005 (ip), vehicle: saline with Tween-80) was 105 % of control; the T/C (dose: 25.0 mg/kg/injection, schedule: Q01DX005 (sc), vehicle: other) was 114 % of control; the T/C (dose: 30.0 mg/kg/injection, schedule: Q01DX009 (ip), vehicle: clinical formulation) is 150 % of control; the T/C (dose: 38.9 mg/kg/injection, schedule: Q01DX009 (ip), vehicle: water) was 203 % of control. The T/C runs as follows: (dose: 50.0 mg/kg/injection, schedule: Q01DX005 (ip), vehicle: other) 164 % of control; (dose: 50.0 mg/kg/injection, schedule: Q01DX005 (iv), vehicle: other) 160 % of control and 175 % of control; (dose: 50.0 mg/kg/injection, schedule: Q01DX005 (oral), vehicle: other) 105 % of control; (dose: 50.0 mg/kg/injection, schedule: Q01DX005 (sc), vehicle: other) 152 % of control; (dose: 50.0 mg/kg/injection, schedule: Q01DX009 (ip), vehicle: clinical formulation) 192 % of control; (dose: 50.0 mg/kg/injection, schedule: Q01DX009 (ip), vehicle: other) 166 % of control. Besides, the T/C is 291 % of control (dose: 64.8 mg/kg/injection, schedule: Q01DX009 (ip), vehicle: water); 247 % of control (dose: 71.4 mg/kg/injection, schedule: Q01DX005 (iv), vehicle: other); 250 % of control (dose: 71.4 mg/kg/injection, schedule: Q01DX009 (ip), vehicle: other); 106 % of control (dose: 83.3 mg/kg/injection, schedule: Q01DX009 (ip), vehicle: clinical formulation); 204 % of control (dose: 100.0 mg/kg/injection, schedule: Q01DX005 (ip), vehicle: saline with Tween-80); 108 % of control (dose: 100.0 mg/kg/injection, schedule: Q01DX005 (oral), vehicle: other). The T/C was 89 % of control (dose: 100.0 mg/kg/injection, schedule: Q01DX005 (sc), vehicle: other); 113 % of control (dose: 200.0 mg/kg/injection, schedule: Q01DX005 (oral), vehicle: other); 171 % of control (dose: 252.0 mg/kg/injection, schedule: Q01DX009 (oral), vehicle: other); 162 % of control (dose: 378.0 mg/kg/injection, schedule: Q01DX009 (oral), vehicle: other); 108 % of control (dose: 400.0 mg/kg/injection, schedule: Q01DX005 (oral), vehicle: other); 229 % of control (dose: 800.0 mg/kg/injection, schedule: Q01DX005 (oral), vehicle: other). The T/C was 182 % of control (dose: 850.0 mg/kg/injection, schedule: Q01DX009 (oral), vehicle: other) and 225 % of control (dose: 1274.0 mg/kg/injection, schedule: Q01DX009 (oral), vehicle: other).

With `OCC1OC(n2cnc3c(=S)nc[nH]c32)C(O)C1O` (stereo not given), the T/C reads like this: (dose: 130.0 mg/kg/injection, schedule: Q01DX Z (sc), vehicle: other) 177 % of control; (dose: 216.0 mg/kg/injection, schedule: Q01DX Z (sc), vehicle: other) 183 % of control; (dose: 360.0 mg/kg/injection, schedule: Q01DX Z (sc), vehicle: other) 177 % of control.

For `O=c1n[n+]([O-])ccn1C1OC(CO)C(O)C1O` (stereo not given), the T/C is, setting by setting: (dose: 172.8 mg/kg/injection, schedule: Q01DX009 (ip), vehicle: saline) 109 % of control; (dose: 288.0 mg/kg/injection, schedule: Q01DX009 (ip), vehicle: saline) 123 % of control; (dose: 480.0 mg/kg/injection, schedule: Q01DX009 (ip), vehicle: saline) 152 % of control.

`C[C@]12C=CC(=O)C=C1CC[C@@H]1[C@@H]2C(=O)C[C@@]2(C)[C@H]1CC[C@]2(O)C(=O)CO`: the T/C is, setting by setting: (dose: 180.0 mg/kg/injection, schedule: Q01DX Z (sc), vehicle: water) 122 % of control; (dose: 180.0 mg/kg/injection, schedule: Q02DX Z (sc), vehicle: water) 154 % of control; (dose: 500.0 mg/kg/injection, schedule: Q#A X Z (sc), vehicle: water) 122 % of control.

Regarding `Nc1cc(C(=O)Nc2ccc(C3=NCCN3)cc2)ccc1C(=O)Nc1ccc(C2=NCCN2)cc1`, the T/C (dose: 3.0 mg/kg/injection, schedule: Q01DX Z (sc), vehicle: methylcellulose (MC)) is 111 % of control; the T/C (dose: 3.0 mg/kg/injection, schedule: Q01DX Z (sc), vehicle: water) is 116 % of control; the T/C (dose: 5.0 mg/kg/injection, schedule: Q01DX Z (sc), vehicle: methylcellulose (MC)) was 200 % of control; the T/C (dose: 5.0 mg/kg/injection, schedule: Q01DX Z (sc), vehicle: water) is 266 % of control; the T/C (dose: 8.4 mg/kg/injection, schedule: Q01DX Z (sc), vehicle: methylcellulose (MC)) is 255 % of control; the T/C (dose: 8.4 mg/kg/injection, schedule: Q01DX Z (sc), vehicle: water) is 294 % of control. Also, the T/C was 200 % of control (dose: 14.0 mg/kg/injection, schedule: Q01DX Z (sc), vehicle: methylcellulose (MC)); 266 % of control (dose: 14.0 mg/kg/injection, schedule: Q01DX Z (sc), vehicle: water); 161 % of control (dose: 23.0 mg/kg/injection, schedule: Q01DX Z (sc), vehicle: methylcellulose (MC)); 288 % of control (dose: 23.0 mg/kg/injection, schedule: Q01DX Z (sc), vehicle: water); 155 % of control (dose: 39.0 mg/kg/injection, schedule: Q01DX Z (sc), vehicle: methylcellulose (MC)); 211 % of control (dose: 39.0 mg/kg/injection, schedule: Q01DX Z (sc), vehicle: water). The T/C is, setting by setting: (dose: 65.0 mg/kg/injection, schedule: Q01DX Z (sc), vehicle: methylcellulose (MC)) 155 % of control; (dose: 65.0 mg/kg/injection, schedule: Q01DX Z (sc), vehicle: water) 200 % of control.
